Assay results as given in PubChem BioAssay AID256 (DTP/NCI, 2004).
Values joined by “and” are separate entries in the source; they are usually repeats but may differ in a detail not shown here. Equal entries are not always repeated. Inconclusive results and toxic doses are left out. How the source made its calls: active means survival T/C of 150% or more; inactive means T/C below 125% in these data.

System: CD2F1 mice, L1210 leukemia ip, survival T/C
Test: NCI In Vivo Anticancer Drug Screen. Data for tumor model L1210 Leukemia (intraperitoneal) in CD2F1 (CDF1) mice
Conditions: higher = longer survival
Outline: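 Tumor-bearing mice (transplanted tumor) were split into treated and vehicle control groups, and the measured endpoint of each treated group was divided by that of its vehicle controls.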

[1] = endpoint: mean survival time, dose: 100.0 mg/kg/injection, schedule: Q04DX002 (ip), vehicle: saline with Tween-80
[2] = endpoint: mean survival time, dose: 200.0 mg/kg/injection, schedule: Q04DX002 (ip), vehicle: saline with Tween-80
[3] = endpoint: mean survival time, dose: 400.0 mg/kg/injection, schedule: Q04DX002 (ip), vehicle: saline with Tween-80
[4] = endpoint: mean survival time, dose: 50.0 mg/kg/injection, schedule: Q01DX009 (ip), vehicle: saline with Tween-80
[5] = endpoint: mean survival time, dose: 100.0 mg/kg/injection, schedule: Q01DX009 (ip), vehicle: saline with Tween-80
[6] = endpoint: mean survival time, dose: 100.0 mg/kg/injection, schedule: Q04DX003 (ip), vehicle: saline with Tween-80
[7] = endpoint: mean survival time, dose: 200.0 mg/kg/injection, schedule: Q01DX009 (ip), vehicle: saline with Tween-80
[8] = endpoint: mean survival time, dose: 200.0 mg/kg/injection, schedule: Q04DX003 (ip), vehicle: saline with Tween-80
[9] = endpoint: mean survival time, dose: 100.0 mg/kg/injection, schedule: Q01DX009 (ip), vehicle: saline
[10] = endpoint: mean survival time, dose: 200.0 mg/kg/injection, schedule: Q01DX009 (ip), vehicle: saline
[11] = endpoint: mean survival time, dose: 100.0 mg/kg/injection, schedule: Q01DX001 (ip), vehicle: saline
[12] = endpoint: mean survival time, dose: 200.0 mg/kg/injection, schedule: Q01DX001 (ip), vehicle: saline
[13] = endpoint: mean survival time, dose: 400.0 mg/kg/injection, schedule: Q01DX001 (ip), vehicle: saline
[14] = endpoint: mean survival time, dose: 400.0 mg/kg/injection, schedule: Q01DX009 (ip), vehicle: saline with Tween-80

Measured: T/C

CC(=O)OC1CC2C[CH]([Hg][Cl])C1C2 (configuration not stated)
inactive: endpoint: mean survival time, dose: 6.25 mg/kg/injection, schedule: Q04DX003 (ip), vehicle: saline with Tween-80 95 % of control | endpoint: mean survival time, dose: 12.5 mg/kg/injection, schedule: Q04DX003 (ip), vehicle: saline with Tween-80 111 % of control | endpoint: mean survival time, dose: 25.0 mg/kg/injection, schedule: Q04DX003 (ip), vehicle: saline with Tween-80 86 % of control

O=C1CC2OCCC3CN4CCC56c7ccccc7N1C5C2C3CC46 (configuration not stated)
inactive: endpoint: mean survival time, dose: 75.0 mg/kg/injection, schedule: Q01DX001 (ip), vehicle: saline 106 % of control | endpoint: mean survival time, dose: 150.0 mg/kg/injection, schedule: Q01DX001 (ip), vehicle: saline 101 % of control

O=c1oc2ccccc2c2ccccc12
inactive: [1] 108 % of control | [2] 101 % of control | [3] 101 % of control

OCCNCc1ccc(Cl)cc1
inactive: [4] 96 % of control | [5] 98 % of control | [6] 103 % of control | [7] 93 % of control | [8] 96 % of control

C1CCC(C2CCCC[N-]2)[N-]C1.[Cl][Pt].[NH-]C(CC(N)=O)C(=O)O (configuration not stated)
inactive: endpoint: median survival time, dose: 10.0 mg/kg/injection, schedule: Q04DX003 (ip), vehicle: saline 101 % of control | endpoint: median survival time, dose: 20.0 mg/kg/injection, schedule: Q04DX003 (ip), vehicle: saline 93 % of control | endpoint: median survival time, dose: 40.0 mg/kg/injection, schedule: Q04DX003 (ip), vehicle: saline 98 % of control | endpoint: median survival time, dose: 80.0 mg/kg/injection, schedule: Q04DX003 (ip), vehicle: saline 91 % of control and 104 % of control | endpoint: median survival time, dose: 160.0 mg/kg/injection, schedule: Q04DX003 (ip), vehicle: saline 95 % of control | endpoint: median survival time, dose: 320.0 mg/kg/injection, schedule: Q04DX003 (ip), vehicle: saline 86 % of control

CC(C)(C)C1OCCCO1
inactive: endpoint: mean survival time, dose: 100.0 mg/kg/injection, schedule: Q04DX002 (ip), vehicle: saline 104 % of control | endpoint: mean survival time, dose: 200.0 mg/kg/injection, schedule: Q04DX002 (ip), vehicle: saline 110 % of control | endpoint: mean survival time, dose: 400.0 mg/kg/injection, schedule: Q04DX002 (ip), vehicle: saline 104 % of control

NC(=S)c1cc(C(N)=S)[nH]n1
inactive: endpoint: mean survival time, dose: 6.25 mg/kg/injection, schedule: Q01DX005 (ip), vehicle: other 101 % of control | endpoint: mean survival time, dose: 12.5 mg/kg/injection, schedule: Q01DX005 (ip), vehicle: other 97 % of control | endpoint: mean survival time, dose: 25.0 mg/kg/injection, schedule: Q01DX005 (ip), vehicle: other 93 % of control | endpoint: mean survival time, dose: 50.0 mg/kg/injection, schedule: Q01DX005 (ip), vehicle: other 95 % of control

CCOC(=O)C(C(=O)OCC)=C1CCC(=O)O1
inactive: [1] 111 % of control | [2] 90 % of control

C=CCN(CC=C)Cc1cccc(N(CCCl)CCCl)c1 (tested in a mixture with another compound)
inactive: endpoint: mean survival time, dose: 50.0 mg/kg/injection, schedule: Q01DX009 (ip), vehicle: Klucel (hydroxypropylcellulose) (HPC) 109 % of control | endpoint: mean survival time, dose: 100.0 mg/kg/injection, schedule: Q01DX009 (ip), vehicle: Klucel (hydroxypropylcellulose) (HPC) 114 % of control

CC1(CC2SCCCS2)SCCCS1
inactive: endpoint: mean survival time, dose: 25.0 mg/kg/injection, schedule: Q04DX002 (ip), vehicle: saline with Tween-80 96 % of control | endpoint: mean survival time, dose: 50.0 mg/kg/injection, schedule: Q04DX002 (ip), vehicle: saline with Tween-80 93 % of control | [1] 96 % of control | [2] 86 % of control

CCOc1nc(-c2ccccc2)nc(N)c1Cl
inactive: [1] 98 % of control | [2] 98 % of control | [3] 98 % of control

C/C(=N/NC(N)=S)c1ccc2ccccc2c1
inactive: endpoint: mean survival time, dose: 6.25 mg/kg/injection, schedule: Q01DX009 (ip), vehicle: saline with Tween-80 103 % of control | endpoint: mean survival time, dose: 12.5 mg/kg/injection, schedule: Q01DX009 (ip), vehicle: saline with Tween-80 115 % of control | endpoint: mean survival time, dose: 25.0 mg/kg/injection, schedule: Q01DX009 (ip), vehicle: saline with Tween-80 122 % of control | [4] 89 % of control

CCN(C(=O)Nc1ccccc1)c1ccccc1
inactive: endpoint: mean survival time, dose: 75.0 mg/kg/injection, schedule: Q04DX003 (ip), vehicle: saline with Tween-80 98 % of control | endpoint: mean survival time, dose: 150.0 mg/kg/injection, schedule: Q04DX003 (ip), vehicle: saline with Tween-80 98 % of control | endpoint: mean survival time, dose: 300.0 mg/kg/injection, schedule: Q04DX003 (ip), vehicle: saline with Tween-80 106 % of control

CCC(N)(CO)CO
inactive: [9] 100 % of control | [10] 94 % of control | endpoint: mean survival time, dose: 400.0 mg/kg/injection, schedule: Q01DX009 (ip), vehicle: saline 94 % of control

O=C(CC(O)(C(F)(F)F)C(F)(F)F)c1ccc(Cl)cc1
inactive: endpoint: mean survival time, dose: 50.0 mg/kg/injection, schedule: Q01DX009 (ip), vehicle: other 103 % of control | endpoint: mean survival time, dose: 100.0 mg/kg/injection, schedule: Q01DX009 (ip), vehicle: other 103 % of control | [6] 107 % of control | endpoint: mean survival time, dose: 200.0 mg/kg/injection, schedule: Q01DX009 (ip), vehicle: other 87 % of control | [8] 107 % of control

O=C1OC(=O)c2c1ccc1c(O)cccc21
inactive: endpoint: mean survival time, dose: 100.0 mg/kg/injection, schedule: Q01DX001 (ip), vehicle: saline with Tween-80 101 % of control | endpoint: mean survival time, dose: 200.0 mg/kg/injection, schedule: Q01DX001 (ip), vehicle: saline with Tween-80 90 % of control | endpoint: mean survival time, dose: 400.0 mg/kg/injection, schedule: Q01DX001 (ip), vehicle: saline with Tween-80 108 % of control

O=C(O)CCC(=O)CCC(=O)c1ccc2ccccc2c1
inactive: [11] 98 % of control | [12] 98 % of control | [13] 95 % of control

CC1(CC(=O)O)NC(=O)NC1=O (configuration not stated)
inactive: [11] 102 % of control | [1] 96 % of control | [12] 97 % of control | [2] 101 % of control | [13] 100 % of control | [3] 96 % of control

CN(C)CC1CCCC12OCCO2 (configuration not stated)
inactive: endpoint: mean survival time, dose: 75.0 mg/kg/injection, schedule: Q01DX001 (ip), vehicle: other 100 % of control | endpoint: mean survival time, dose: 150.0 mg/kg/injection, schedule: Q01DX001 (ip), vehicle: other 96 % of control | endpoint: mean survival time, dose: 300.0 mg/kg/injection, schedule: Q01DX001 (ip), vehicle: other 106 % of control

Fc1c(F)c(F)c([Si](c2c(F)c(F)c(F)c(F)c2F)(c2c(F)c(F)c(F)c(F)c2F)c2c(F)c(F)c(F)c(F)c2F)c(F)c1F
inactive: [5] 97 % of control | [7] 100 % of control | [14] 98 % of control

O=c1cn[nH]c2ccc(Br)cc12
inactive: endpoint: mean survival time, dose: 100.0 mg/kg/injection, schedule: Q01DX001 (ip), vehicle: other 97 % of control | endpoint: mean survival time, dose: 200.0 mg/kg/injection, schedule: Q01DX001 (ip), vehicle: other 102 % of control | endpoint: mean survival time, dose: 400.0 mg/kg/injection, schedule: Q01DX001 (ip), vehicle: other 91 % of control

N#Cc1cccnc1.NCCNCCN.[Br-].[Pt+4]
inactive: endpoint: mean survival time, dose: 12.5 mg/kg/injection, schedule: Q01DX009 (ip), vehicle: saline 95 % of control | endpoint: mean survival time, dose: 25.0 mg/kg/injection, schedule: Q01DX009 (ip), vehicle: saline 103 % of control | endpoint: mean survival time, dose: 50.0 mg/kg/injection, schedule: Q01DX009 (ip), vehicle: saline 101 % of control | [9] 98 % of control | [10] 98 % of control

OC1(c2cccc(C(F)(F)F)c2)CCN(C2CC2c2ccccc2)CC1 (configuration not stated)
inactive: [1] 97 % of control | [2] 95 % of control

C=CCC(Cl)(C(=O)OC)C(=O)OC
inactive: [5] 108 % of control | [7] 108 % of control | [14] 106 % of control

c1ccc2c(c1)C1c3cccc[n+]3C2C2C1CC1C3c4ccccc4C(C12)[n+]1ccccc13 (configuration not stated)
inactive: endpoint: mean survival time, dose: 12.5 mg/kg/injection, schedule: Q04DX003 (ip), vehicle: saline 98 % of control

Cn1ccoc1=NC1CCCCC1
inactive: [4] 94 % of control | [5] 94 % of control | [7] 91 % of control

O=C(O)c1c2c(nc3ccccc13)Cc1ccccc1-2
inactive: endpoint: mean survival time, dose: 12.5 mg/kg/injection, schedule: Q01DX009 (ip), vehicle: water 104 % of control and 109 % of control | endpoint: mean survival time, dose: 25.0 mg/kg/injection, schedule: Q01DX009 (ip), vehicle: water 103 % of control and 108 % of control | [4] 96 % of control | endpoint: mean survival time, dose: 50.0 mg/kg/injection, schedule: Q01DX009 (ip), vehicle: water 105 % of control and 110 % of control | [5] 104 % of control | endpoint: mean survival time, dose: 100.0 mg/kg/injection, schedule: Q01DX009 (ip), vehicle: water 100 % of control and 112 % of control | [6] 98 % of control | [7] 101 % of control | endpoint: mean survival time, dose: 200.0 mg/kg/injection, schedule: Q01DX009 (ip), vehicle: water 114 % of control | [8] 104 % of control

O=C(C=C(C(F)(F)F)C(F)(F)F)c1ccc(C(=O)C=C(C(F)(F)F)C(F)(F)F)cc1
inactive: [6] 105 % of control | [8] 93 % of control

CCC/C=C/C(O)C(C)C(C)C (configuration not stated)
inactive: [4] 103 % of control | [5] 103 % of control | [7] 98 % of control
